In PMC6917776, “Discovery of a chemical probe for PRDM9” (Nature Communications, 2019):

Target: T1, PRDM9 (amino acids: 195–415) (Homo sapiens, UniProt Q9NQV7)
T1 construct: PRDM9 (amino acids: 195–415)
T1 sequence (Q9NQV7 195-415): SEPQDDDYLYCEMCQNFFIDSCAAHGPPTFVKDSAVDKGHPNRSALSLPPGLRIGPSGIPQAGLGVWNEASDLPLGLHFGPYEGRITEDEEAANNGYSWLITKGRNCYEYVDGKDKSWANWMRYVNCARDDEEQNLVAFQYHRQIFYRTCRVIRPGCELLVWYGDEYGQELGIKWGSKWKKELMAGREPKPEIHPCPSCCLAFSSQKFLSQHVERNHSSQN
Experiment: PRDM9 methyltransferase activity assay (3H-SAM scintillation proximity assay)
Format: biochemical
Conditions: PRDM9, Exp1, Exp2
Method: Methyltransferase activity assays for PRDM9 (amino acids: 195–415) were performed by monitoring the incorporation of tritium-labeled methyl group from ^3H-SAM to H3 (1–25) peptide using scintillation proximity assay (SPA). The enzymatic reactions were performed at 23 °C with 30 min incubation in 20 mM Tris-HCl (pH 7.5), 5 mM DTT, 0.01% Triton X-100 and 1% DMSO containing 71 μM of SAM (5 μM of ^3H-SAM), 4 μM of biotinylated H3 (1–25) peptide and 5 nM of PRDM9. For PRDM7, reactions were performed at 23 °C with 90 min incubation in 20 mM BTP pH 9.0, 5 mM DTT, 0.01% Triton X-100 and 1% DMSO containing 900 μM of SAM (5 μM of ^3H-SAM), 4 μM of biotinylated H3 (1–25) peptide and 100 nM of enzyme. […] To stop the reactions, 10 μL of 7.5 M guanidine hydrochloride was added to 10 μL of reaction mixture, followed by 60 μL of buffer (20 mM Tris, pH 8.0), mixed, and transferred to a 384-well streptavidin coated Flash-plate. After mixing, the mixtures in Flash-plate were incubated for 2 h, and the CPM counts were measured using TopCount plate reader. All enzymatic reactions were performed in triplicate, and IC50 values were determined by fitting the data to Four Parameter Logistic equation using the GraphPad Prism software.

COc1cc(OC)cc(-c2noc(N3CCN(C)C4(CCN(c5ccccc5)CC4)C3)n2)c1 [MRK-740 -NC]
activity at 1 µM (1µM compound): 97%
Activity % (1µM compound, 1 µM): 90%
activity at 10 µM (10µM compound): 96%
Activity % (10µM compound, 10 µM): 93%
